Legend:
Format in all cases: cell-based, Schistosoma mansoni
S. mansoni schistosomula = assay: Roboworm high-content screening assay on schistosomula (motility and phenotype scores); conditions: 72 h
Method: All PZQ derivatives were synthesized in the racemic form and evaluated as such. The compounds were initially screened at 10 μM against S. mansoni schistosomula using the Roboworm high-content screening assay , and were declared hits or nonhits based on their effect on parasites’ motility and phenotype scores after 72 h of incubation. As none of the compounds were considered hits at this concentration, we performed a titration from 6.25 to 50 μM (Figure S27).
DMSO was included as a negative control. Compounds were considered hits if both their motility and phenotype scores were lower than −0.35 and −0.15, respectively (region delimited by the dashed lines). In red, PZQ analogues selected for further analysis.
For the collection of schistosomula, B. glabrata snails infected with S. mansoni were shed for 2 h under light at 26 °C. Cercariae were collected, mechanically transformed into schistosomula as previously described.
DMSO (0.625%, v/v) was included as a negative control. Z′ values for the assay were calculated to be 0.542 for phenotype and 0.361 for motility. […]
(§1) Auranofin (AUR) was included at 10 µM as positive control. DMSO was included as a negative control. Compounds were considered hits if both their motility and phenotype scores were lower than -0.35 and -0.15, respectively (region delimited by the […]

[1] = system: juvenile schistosomes (21 days p.i.); assay: XTT juvenile viability assay; conditions: 48 h; for parasite metabolic activity compared to the DMSO control group (XTT): 100 μM
Sm.TRPMPZQ Y1392A mutant = assay: Ca2+ reporter activation assay, Sm.TRPMPZQ point mutant Y1392A; conditions: 100 μM
Method: This trend likely indicates a similar binding mode.
The colored cells represent the range of EC50 values for each compound based on their ability to activate the channel.
(§2) The Ca^2+ reporter assay was performed using a Fluorescence Imaging Plate Reader (FLIPR) system, as described in the Supporting Information.
(§3) Adult worm ex-vivo high-content assay
(§4) “Area” and “False Negative Rate” from the MeasureObjectSizeShape and MeasureObjectOverlap modules, respectively. These measurements were then modeled by a multilevel generalized linear statistical model. The effects of the experimental treatments on […]
(§5) The half-maximal inhibitory
(§6) Windows (GraphPad Software, Boston, MA, USA; www.graphpad.com). […]
(§7) with DMSO as a negative control. […]
(§8) reader. […] The fluorescence
(§9) Untransfected HEK293 cells were used as a control.
(§10) 10% fetal bovine serum (FBS). […]
(§11) atmosphere containing 5% CO₂. Following incubation, the growth medium was removed and […]
buffer containing 2.5 mM probenecid in HBSS (with Ca²⁺ and Mg²⁺), 20 mM HEPES, 0.3% BSA (Sigma, A7030), and 0.03% L-ascorbic acid (Sigma). Cells were incubated for 40 minutes at 37 °C and subsequently for 20 minutes at room temperature. […]
(§12) instrument (Molecular Devices). Baseline fluorescence was recorded for 20 seconds, followed by the addition of 5 µL of each drug solution, after which fluorescence was measured continuously for 250 seconds. […]

Sm.TRPMPZQ = assay: Ca2+ reporter assay in antagonist mode (block of PZQ activation of Sm.TRPMPZQ); conditions: preincubation 1 nM-100 μM for 10 min, data not shown
Method: as §2, §3, §4, §5, §6, §7, §8, §9, §10, §11
buffer containing 2.5 mM probenecid in HBSS (with Ca²⁺ and Mg²⁺), 20 mM HEPES, 0.3% BSA (Sigma, A7030), and 0.03% L-ascorbic acid (Sigma). Cells were incubated for 40 minutes at 37 °C and subsequently for 20 minutes at room temperature. A total of seven PZQ derivatives were tested, using racemic PZQ included as a positive control on each assay plate. Drug dilutions were prepared in assay buffer without dye and probenecid and dispensed into separate flat-bottom 384-well plates. Calcium flux measurements were performed at room temperature using a […]
as §12
as §1, with “schistosomula after 72h of incubation using the Roboworm high-content screening assay. Auranofin” for “Auranofin”
(1 picture or pasted object on this page, not shown here)

| Compound | hit classification (motility and phenotype scores) (S. mansoni schistosomula; 12.5 μM) | hit classification (motility and phenotype scores) (S. mansoni schistosomula; 25 μM) | parasite metabolic activity compared to the DMSO control group (XTT) [1] | viability at 100 µM ([1]; Schistosoma mansoni, mean ± SD, read-out: juvenile worm viability (XTT, % residual viability)) | activity at Sm.TRPMPZQ carrying the Y1392A mutation (Sm.TRPMPZQ Y1392A mutant) | block of PZQ activation of Sm.TRPMPZQ (antagonist mode) (Sm.TRPMPZQ) | effect on parasites motility (S. mansoni schistosomula; 50 μM) | hit classification (motility and phenotype scores) (S. mansoni schistosomula; 50 μM, hit if motility < -0.35 and phenotype < -0.15) |
| --- | --- | --- | --- | --- | --- | --- | --- | --- |
| [N-]=[N+]=Nc1ccc2c(c1)C1CN(C(=O)C3CCCCC3)CC(=O)N1CC2 (stereo not drawn) [Compound 4] | borderline | declared a hit | significantly decreased | 44.6% | retained residual activity | – | – | – |
| O=C(C1CCCCC1)N1CC(=O)N2CCc3ccc(-n4cc(C5=CCCCC5)nn4)cc3C2C1 (stereo not drawn) [Compound 5b] | – | – | – | – | – | failed to impact subsequent responses to PZQ | – | – |
| CCCc1cn(-c2ccc3c(c2)C2CN(C(=O)C4CCCCC4)CC(=O)N2CC3)nn1 (stereo not drawn) [Compound 5e] | – | – | significantly decreased | – | – | – | significant effect | did not change their phenotype score enough to be considered a hit |

Source: paper PMC12718081 (ACS Infectious Diseases, 2025)
